Assay results published in patent publication US20140193436A1, “EXTRACELLULAR TARGETED DRUG CONJUGATES” (priority 2011, published 2014).
Like-named read-outs stand apart in the source and are kept apart here.

Experiments:
H460 LCLC cells = experiment: In vitro cytotoxicity assessment (CellTiter-Glo cell viability), H460; type: cell-based, human
Excerpt: (§1) Cells and culture conditions: Cell lines H460, HT29, A549, PANC-1, MB231, FaDu, H69 and H929 were obtained from the American Type Culture Collection (ATCC), Manassas, Va. The malignant melanoma cell line LOX IMVI was obtained from the DCTD Tumor Repository, National Cancer Institute, Frederick, Md., The cell lines were maintained in the recommended media formulations and subcultured every 3 to 4 days. To activate expression of certain targets to which the drug moiety bind and/or to form Na,K-ATPase complexes with certain proteins, cells can be cultured in recommended media plus additives such as phorbol esters, various growth factors and cytokines such as VEGF, fibroblast growth factors, human growth factors, interleukins, and tumor necrosis factors. In addition, cells can be cocultured with other cells like human fibroblasts. Additionally, microtiter plates can be coated with various proteins like fibrinogen.
(§2) Cells were incubated in the presence of test compound for 72 hr prior to cell viability testing.

HT29 Colon cells = experiment: In vitro cytotoxicity assessment (CellTiter-Glo cell viability), HT29; type: cell-based, human
Excerpt: as §1, §2

A549 NSCLC cells = experiment: In vitro cytotoxicity assessment (CellTiter-Glo cell viability), A549; type: cell-based, human
Excerpt: as §1, §2

PANC1 Pancreas cells = experiment: In vitro cytotoxicity assessment (CellTiter-Glo cell viability), PANC1; type: cell-based, human
Excerpt: as §1, §2

MB231 Breast cells = experiment: In vitro cytotoxicity assessment (CellTiter-Glo cell viability), MB231; type: cell-based, human
Excerpt: as §1, §2

FaDu Head/neck cells = experiment: In vitro cytotoxicity assessment (CellTiter-Glo cell viability), FaDu; type: cell-based, human
Excerpt: as §1, §2

H69 SCLC cells = experiment: In vitro cytotoxicity assessment (CellTiter-Glo cell viability), H69; type: cell-based, human
Excerpt: as §1, §2

[1] = test system: LOX Melanoma cells (LOX IMVI); experiment: In vitro cytotoxicity assessment (CellTiter-Glo cell viability), LOX; type: cell-based, human
Excerpt: as §1, §2

H929 Myeloma cells = experiment: In vitro cytotoxicity assessment (CellTiter-Glo cell viability), H929; type: cell-based, human
Excerpt: as §1, §2

[2] = test system: HT-29 human colon cancer xenograft; experiment: HT-29 human colon cancer xenograft model; type: in vivo, Hsd:Athymic Nude-Foxn1nu mice; conditions: 15 mg/kg qd×5 (positive control); compared to vehicle
Method: Briefly, to establish a human colorectal adenocarcinoma disease model, tumors from HT-29 xenograft bearing mice were minced and 8 mm^3 fragments were transplanted s.c. by trocar needle into the left flank of Hsd:Athymic Nude-Foxn1^nu mice (Harlan, Indianapolis, Ind.). Therapy with EDC2.2 was then initiated when the tumor volume in groups of 7 animals averaged ˜100 mm^3. Treatment using vehicle control and either 1 or 5 mg/kg EDC2.2 was administered i.v. using the schedule of one injection every 3 days with 4 total injected doses (q3d×4). 15 mg/kg paclitaxel dosed at qd×5 served as a positive control treatment group. Tumor volumes were measured for each group using calibrated vernier calipers and plotted against first day of tumor implant for 69 days post-implant and 41 days post-initial dose. […] Therefore, EDCs that employ targeting moieties to CD147 conjugated to agents that act on the Na,K-ATPase should be generally useful in treating colon cancers.

Q: Which EC50 (H460 LCLC cells; H460 LCLC, 72 hr with test compound, read-out: EC50) does the source give for C[C@]12CC[C@H](OC3OC[C@H](N)[C@@H](O)[C@@H]3O)C=C1CCC1C2CC[C@]2(C)[C@@H](c3ccc(=O)oc3)CC[C@]12O (stereo partly shown) [CEN09-106] here?
A: 1.4 nM

Q: What about the EC50 (HT29 Colon cells; HT29 Colon, 72 hr with test compound, read-out: EC50) of the same molecule?
A: 2.9 nM

Q: And the EC50 (A549 NSCLC cells; A549 NSCLC, 72 hr with test compound, read-out: EC50)?
A: 0.66 nM

Q: What about the EC50 (PANC1 Pancreas cells; PANC1 Pancreas, 72 hr with test compound, read-out: EC50) of the same molecule?
A: 1.1 nM

Q: What about the EC50 (MB231 Breast cells; MB231 Breast, 72 hr with test compound, read-out: EC50) of the same molecule?
A: 3.3 nM

Q: What about the EC50 (FaDu Head/neck cells; FaDu Head/neck, 72 hr with test compound, read-out: EC50) of the same molecule?
A: 3.1 nM

Q: What about the EC50 (H69 SCLC cells; H69 SCLC, 72 hr with test compound, read-out: EC50) of the same molecule?
A: 1 nM

Q: What about the EC50 ([1]; LOX Melanoma, 72 hr with test compound, read-out: EC50) of the same molecule?
A: 2.5 nM

Q: And the EC50 (H929 Myeloma cells; H929 Myeloma, 72 hr with test compound, read-out: EC50)?
A: 3.1 nM

Q: With C[C@]12CC[C@H](O[C@H]3OC[C@H](NC(=O)CCOCCOCCOCCOCCOCCOCCOCCOCCOCCOCCOCCOCCOCCOCCOCCOCCOCCOCCOCCOCCOCCOCCOCCOCCNC(=O)CCN4C(=O)C=CC4=O)[C@H](O)C3O)C=C1CCC1C2CC[C@]2(C)[C@@H](c3ccc(=O)oc3)CC[C@]12O (stereo partly shown) [CEN010-105] as the molecule, how does the EC50 (H460 LCLC cells; Homo sapiens, NCI-H460, 72 h) read?
A: 76.9 nM

Q: And the EC50 (HT29 Colon cells; Homo sapiens, HT-29, 72 h)?
A: 60 nM

Q: And the EC50 (A549 NSCLC cells; Homo sapiens, A549, 72 h)?
A: 31.3 nM

Q: And the EC50 (PANC1 Pancreas cells; Homo sapiens, PANC-1, 72 h)?
A: 27.1 nM

Q: What about the EC50 (MB231 Breast cells; Homo sapiens, 72 h) of the same molecule?
A: 109 nM

Q: What about the EC50 (FaDu Head/neck cells; Homo sapiens, FaDu, 72 h) of the same molecule?
A: 75.5 nM

Q: What about the EC50 (H69 SCLC cells; Homo sapiens, 72 h) of the same molecule?
A: 26.6 nM

Q: And the EC50 ([1]; Homo sapiens, LOX, 72 h)?
A: 71 nM

Q: What about the EC50 (H929 Myeloma cells; Homo sapiens, NCI-H929, 72 h) of the same molecule?
A: 89.6 nM

Q: CC(=O)O[C@H]1C(=O)[C@@]2(C)[C@H]([C@H](OC(=O)c3ccccc3)[C@]3(O)C[C@H](OC(=O)[C@H](O)[C@@H](NC(=O)c4ccccc4)c4ccccc4)C(C)=C1C3(C)C)[C@]1(OC(C)=O)CO[C@@H]1C[C@@H]2O [Paclitaxel, paclitaxel] was tested. Which “growth inhibition of the tumor” value [2] did it give?
A: 85%
